Earlier results on three compounds are cited in publication PMC8008885 (Journal of Enzyme Inhibition and Medicinal Chemistry, 2021).

This data set relates to HD transgenic mice. Conditions: cited from earlier work.

`NCCSSCCN` [cystamine]: the H3K9 trimethylation entry is on record as “reduced”; the SETDB1 gene expression entry is given as “down-regulates”; the “behaviour and neuropathological phenotype” value is reported as “improved”.

As to `COC(=O)[C@@H]1c2cc3c(c(O)c2[C@@H](O[C@@H]2O[C@@H](C)[C@H](OC)[C@@](C)(OC)[C@H]2OC)C[C@]1(C)O)C(=O)c1c(O)cc2c(c1C3=O)O[C@@H]1O[C@@]2(C)[C@H](O)[C@@H](N(C)C)[C@@H]1O` [nogalamycin], the “neuroprotective effects by suppressing elevated SETDB1 and H3K9me3 level” value is “improved neuroprotective effects”.

On to mithramycin, for which the H3K9 trimethylation entry is “reduced”; the SETDB1 gene expression entry was “down-regulates”; the “behaviour and neuropathological phenotype” value is listed as “improved”.
